Laboratory results reported in patent US20260256792A1, “TREATMENT OF CHRONIC SPONTANEOUS URTICARIA BY ADMINISTERING (R)-2-[3-[4-AMINO-3-(2-FLUORO-4-PHENOXY-PHENYL)PYRAZOLO[3,4-D]PYRIMIDIN-1-YL]PIPERIDINE-1-CARBONYL]-4-METHYL-4-[4-(OXETAN-3-YL)PIPERAZIN-1-YL]PENT-2-ENENITRILE” (priority 2023, published 2026).

Columns and labels:
[1] = tested on: IgG anti-FcεRI; experiment: Phase 2 CSU study: serum IgG anti-FcεRI ELISA; assay type: in vivo, human; conditions: for IgG anti-FcεRI (arbitrary unit) Median Percent Change from Baseline: Baseline to Week 12
From the text: Blood samples were also collected through Week 12 to evaluate the change in baseline in various biomarkers, including sMRGPRX2, IgG anti-TPO, IgG anti-FCεRI, IgG anti-IgE, and IL-31.
Collection of biological samples for other biomarker research was also part of this study. The following samples for biomarker research were required and were to be collected from all participants in this study: • Serum and plasma samples for soluble biomarkers and cellular tests. Analytes included IgG anti-IgE, IgG anti-FcεRI, IgG anti-TPO, IgE anti-TPO, IL-31, and sMRGPRX2. • Blood samples for immune cell phenotyping, including measurement of eosinophil levels • Blood samples for BTK occupancy in peripheral blood mononuclear cells (PBMCs) at selected sites
For each patient, serum samples were to be collected on each of four visits (Visits 2, 4, 6, and end of study/follow up).
If dilutions were to be prepared, the same dilutions were to be prepared twice from each sample. These were to be measured on different plates. Each plate was to include a standard curve. Samples were to be measured twice for all biomarkers except for sMRGPRX2. Mean measurement values were to be calculated, and the concentration of the biomarker was to be calculated using GraphPad Prism 9 software (4-PL model).
For the IgG anti-FcεRI ELISA, MaxiSorp plates were coated overnight with […] recombinant human FcεRIα and blocked with 10% protein-free blocking buffer diluted in assay buffer. Following the addition of serum samples (1:100 in assay buffer) or the hIgG anti-FcεRI standard (1:2 serial dilution in assay buffer), the plates were incubated at room temperature. Next, the anti-IgG-HRP detection antibody was added to all samples. Development was performed using ECL-prime solution and chemiluminescent signal intensity was measured on the Victor5 multimode plate reader.
Assay data ranges are described below. • sMRGPRX2: 0.1 ng/mL-10 ng/mL • IgG anti-FCεRI: 0-10000 arbitrary units (AU) • IgG anti-TPO: 0-3000 international units (IU) • IgE anti-TPO: 0-500 AU • IgG anti-IgE: 0-100000 AU • IL-31: 0.1 ng/mL-20 ng/mL

[2] = tested on: rat collagen-induced arthritis model; conditions: cited from earlier work
[3] = tested on: CYP3A; conditions: cited from earlier work
[4] = tested on: total serum IgE or IgG; experiment: Phase 2 CSU study: total serum immunoglobulins (IgE, IgG, IgM); conditions: for Total IgE (IU/mL) Median Percent Change from Baseline / Total IgG (g/L) Median Percent Change from Baseline: Baseline to Week 12
Protocol: Changes in disease-relevant biomarkers were assessed over the course of the 12-Week double-blind phase (see FIG. 40). Biomarkers included sMRGPRX2, IgE anti-TPO, IgG anti-FCεRI, IL-31, IgM, IgE, IgG, IgG anti-IgE, and white blood cell levels.

CC(C)(C=C(C#N)C(=O)N1CCC[C@@H](n2nc(-c3ccc(Oc4ccccc4)cc3F)c3c(N)ncnc32)C1)N1CCN(C2COC2)CC1 [rilzabrutinib, (R)-2-[3-[4-amino-3-(2-fluoro-4-phenoxy-phenyl)pyrazolo[3,4-d]pyrimidin-1-yl]piperidine-1-carbonyl]-4-methyl-4-[4-(oxetan-3-yl)piperazin-1-yl]pent-2-enenitrile]
reduction from baseline for IgG anti-FCFRI ([1]; 400 mg TID, Week 12): 38.7%
IgG anti-FcεRI (arbitrary unit) Median Percent Change from Baseline ([1]; 400 mg BID): −39.0%
IgG anti-FcεRI (arbitrary unit) Median Percent Change from Baseline ([1]; 400 mg QPM): −20.4%
IgG anti-FcεRI (arbitrary unit) Median Percent Change from Baseline ([1]; 400 mg TID): −38.7%
rat collagen-induced arthritis [2]: full disease reversal
CYP3A inhibition [3]: mild inhibitor
change in total serum IgE or IgG levels ([4]; 12-week double-blind phase): not associated with a change
Total IgE (IU/mL) Median Percent Change from Baseline ([4]; 400 mg BID): 3.9%
Total IgG (g/L) Median Percent Change from Baseline ([4]; 400 mg BID): 0.96%
Total IgE (IU/mL) Median Percent Change from Baseline ([4]; 400 mg QPM): 3.4%
Total IgG (g/L) Median Percent Change from Baseline ([4]; 400 mg QPM): −1.99%
Total IgE (IU/mL) Median Percent Change from Baseline ([4]; 400 mg TID): 4.1%
Total IgG (g/L) Median Percent Change from Baseline ([4]; 400 mg TID): 0.24%
